Data taken from US9637483B2, “Heterocyclic compound” (TAKEDA PHARMACEUTICAL COMPANY LIMITED, priority 2013, dated 2017).

Tests used:
Format in all cases: biochemical
[1] = molecular target: T1, JAK1 (Homo sapiens, UniProt P23458); experiment: JAK1 enzyme inhibition test (LANCE method); conditions: 1 μM test compound; for inhibition at 1 µM: read-out: JAK1 enzyme inhibitory activity (%, 1 μM)
T1 construct: purchased Invitrogen
Summary of the method: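 Inhibition expressed against no-enzyme wells (100% inhibition), from time-resolved fluorescence at 665 nm after Eu-anti-phosphotyrosine antibody/EDTA detection. Kinase reaction ran 1 h at room temperature, pH 7.5 HEPES buffer, ULight-JAK1 substrate and ATP diluted to 300 nM and 150 μM before addition.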

[2] = molecular target: T2, JAK2 (Homo sapiens, UniProt O60674); experiment: JAK2 enzyme inhibition test (LANCE method); conditions: 1 μM test compound; for inhibition at 1 µM: read-out: JAK2 enzyme inhibitory activity (%, 1 μM)
T2 construct: purchased Invitrogen
Summary of the method: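 TR-FRET (LANCE) read-out, ex 340/em 665 nm with 100 μs delay, after 1 hr room-temperature detection with europium anti-phosphotyrosine antibody and 20 mM EDTA. The preceding 1 hr kinase reaction combined JAK2, ULight-JAK1 substrate and ATP, added as 6 ng/mL, 300 nM and 45 μM solutions; enzyme-free wells defined 100% inhibition.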

[3] = molecular target: T3, JAK3 (Homo sapiens, UniProt P52333); experiment: JAK3 enzyme inhibition test (LANCE method); conditions: 1 μM test compound; for inhibition at 1 µM: read-out: JAK3 enzyme inhibitory activity (%, 1 μM)
T3 construct: purchased Invitrogen
T3 sequence (P52333 1-1124): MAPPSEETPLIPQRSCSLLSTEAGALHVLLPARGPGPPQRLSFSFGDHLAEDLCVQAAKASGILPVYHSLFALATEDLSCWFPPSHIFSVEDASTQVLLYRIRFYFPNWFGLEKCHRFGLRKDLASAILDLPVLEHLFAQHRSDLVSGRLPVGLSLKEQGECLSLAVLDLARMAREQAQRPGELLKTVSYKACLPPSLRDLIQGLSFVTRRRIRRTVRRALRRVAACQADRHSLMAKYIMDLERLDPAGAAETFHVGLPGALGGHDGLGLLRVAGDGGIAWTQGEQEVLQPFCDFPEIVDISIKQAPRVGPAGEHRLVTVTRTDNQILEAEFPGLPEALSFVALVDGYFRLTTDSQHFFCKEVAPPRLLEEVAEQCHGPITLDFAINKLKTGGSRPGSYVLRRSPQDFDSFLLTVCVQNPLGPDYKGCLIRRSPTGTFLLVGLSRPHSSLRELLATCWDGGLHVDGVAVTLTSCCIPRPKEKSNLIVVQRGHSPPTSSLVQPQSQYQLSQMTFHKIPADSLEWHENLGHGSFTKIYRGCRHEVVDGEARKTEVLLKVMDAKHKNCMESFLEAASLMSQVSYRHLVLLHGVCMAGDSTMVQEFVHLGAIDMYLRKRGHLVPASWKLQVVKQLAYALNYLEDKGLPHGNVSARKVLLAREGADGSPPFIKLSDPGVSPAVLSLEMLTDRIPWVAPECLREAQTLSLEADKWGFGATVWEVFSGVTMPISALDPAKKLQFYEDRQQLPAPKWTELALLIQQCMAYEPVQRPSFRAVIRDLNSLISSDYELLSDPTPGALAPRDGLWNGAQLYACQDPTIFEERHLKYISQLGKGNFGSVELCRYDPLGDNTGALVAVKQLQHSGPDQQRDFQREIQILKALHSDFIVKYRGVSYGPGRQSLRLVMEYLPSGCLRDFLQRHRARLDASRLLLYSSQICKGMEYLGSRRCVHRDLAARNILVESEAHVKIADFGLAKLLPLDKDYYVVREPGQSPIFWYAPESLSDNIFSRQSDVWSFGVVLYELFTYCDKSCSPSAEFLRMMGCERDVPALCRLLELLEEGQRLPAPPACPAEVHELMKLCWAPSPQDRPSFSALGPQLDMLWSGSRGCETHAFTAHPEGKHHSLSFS
Summary of the method: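 TR-FRET (LANCE) read: 1 h room-temperature reaction, EDTA quench, Eu-anti-phosphotyrosine antibody, emission 665 nm after 340 nm excitation. Added solutions held 12 ng/mL JAK3, 300 nM ULight-JAK1 substrate and 15 μM ATP (pH 7.5 HEPES). Activity expressed against no-enzyme wells defined as full inhibition.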

[4] = molecular target: T4, TYK2 (Homo sapiens, UniProt P29597); experiment: TYK2 enzyme inhibition test (LANCE method); conditions: 1 μM test compound; for inhibition at 1 µM: read-out: TYK2 enzyme inhibitory activity (%, 1 μM)
T4 construct: purchased Invitrogen
Summary of the method: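 TR-FRET (LANCE) readout: after 1 h room-temperature kinase reaction, EDTA plus 4 nM Eu-labelled anti-phosphotyrosine antibody added, signal at 665 nm (340 nm excitation). Reaction combined TYK2, ULight-JAK1 substrate and ATP, prepared at 375 ng/mL, 300 nM and 30 μM before addition, in pH 7.5 HEPES/MgCl2 buffer; enzyme-free wells define full inhibition.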

T2 sequence (O60674 whole entry): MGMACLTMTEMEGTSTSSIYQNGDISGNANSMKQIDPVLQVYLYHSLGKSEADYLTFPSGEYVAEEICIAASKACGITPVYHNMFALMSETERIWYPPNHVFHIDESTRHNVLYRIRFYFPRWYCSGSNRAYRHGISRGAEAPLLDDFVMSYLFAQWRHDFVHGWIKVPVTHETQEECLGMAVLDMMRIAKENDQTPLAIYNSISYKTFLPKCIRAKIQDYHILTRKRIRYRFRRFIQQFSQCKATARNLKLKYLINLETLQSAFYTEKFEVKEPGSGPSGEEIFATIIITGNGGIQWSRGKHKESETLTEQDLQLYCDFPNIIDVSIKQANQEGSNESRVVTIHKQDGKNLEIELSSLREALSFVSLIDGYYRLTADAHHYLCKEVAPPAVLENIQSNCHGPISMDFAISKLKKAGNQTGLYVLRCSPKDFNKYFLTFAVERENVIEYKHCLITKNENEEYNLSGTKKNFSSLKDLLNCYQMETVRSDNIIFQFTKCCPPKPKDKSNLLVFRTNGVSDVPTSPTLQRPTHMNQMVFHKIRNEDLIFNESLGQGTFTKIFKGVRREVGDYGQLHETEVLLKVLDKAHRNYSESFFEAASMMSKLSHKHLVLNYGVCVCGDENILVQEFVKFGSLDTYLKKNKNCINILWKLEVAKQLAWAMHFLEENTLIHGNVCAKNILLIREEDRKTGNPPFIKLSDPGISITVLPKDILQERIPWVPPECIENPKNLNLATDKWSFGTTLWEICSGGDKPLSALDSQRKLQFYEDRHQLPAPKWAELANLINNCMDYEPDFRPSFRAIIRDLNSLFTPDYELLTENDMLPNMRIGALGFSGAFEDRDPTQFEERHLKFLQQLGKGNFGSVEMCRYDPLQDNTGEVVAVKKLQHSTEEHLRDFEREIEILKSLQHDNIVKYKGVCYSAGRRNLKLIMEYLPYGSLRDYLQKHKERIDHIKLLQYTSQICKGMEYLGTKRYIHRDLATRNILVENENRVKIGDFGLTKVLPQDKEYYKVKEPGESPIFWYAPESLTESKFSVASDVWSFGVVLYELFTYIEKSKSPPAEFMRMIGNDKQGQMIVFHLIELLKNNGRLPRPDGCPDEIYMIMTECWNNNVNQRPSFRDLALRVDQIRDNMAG
T4 sequence (P29597 whole entry): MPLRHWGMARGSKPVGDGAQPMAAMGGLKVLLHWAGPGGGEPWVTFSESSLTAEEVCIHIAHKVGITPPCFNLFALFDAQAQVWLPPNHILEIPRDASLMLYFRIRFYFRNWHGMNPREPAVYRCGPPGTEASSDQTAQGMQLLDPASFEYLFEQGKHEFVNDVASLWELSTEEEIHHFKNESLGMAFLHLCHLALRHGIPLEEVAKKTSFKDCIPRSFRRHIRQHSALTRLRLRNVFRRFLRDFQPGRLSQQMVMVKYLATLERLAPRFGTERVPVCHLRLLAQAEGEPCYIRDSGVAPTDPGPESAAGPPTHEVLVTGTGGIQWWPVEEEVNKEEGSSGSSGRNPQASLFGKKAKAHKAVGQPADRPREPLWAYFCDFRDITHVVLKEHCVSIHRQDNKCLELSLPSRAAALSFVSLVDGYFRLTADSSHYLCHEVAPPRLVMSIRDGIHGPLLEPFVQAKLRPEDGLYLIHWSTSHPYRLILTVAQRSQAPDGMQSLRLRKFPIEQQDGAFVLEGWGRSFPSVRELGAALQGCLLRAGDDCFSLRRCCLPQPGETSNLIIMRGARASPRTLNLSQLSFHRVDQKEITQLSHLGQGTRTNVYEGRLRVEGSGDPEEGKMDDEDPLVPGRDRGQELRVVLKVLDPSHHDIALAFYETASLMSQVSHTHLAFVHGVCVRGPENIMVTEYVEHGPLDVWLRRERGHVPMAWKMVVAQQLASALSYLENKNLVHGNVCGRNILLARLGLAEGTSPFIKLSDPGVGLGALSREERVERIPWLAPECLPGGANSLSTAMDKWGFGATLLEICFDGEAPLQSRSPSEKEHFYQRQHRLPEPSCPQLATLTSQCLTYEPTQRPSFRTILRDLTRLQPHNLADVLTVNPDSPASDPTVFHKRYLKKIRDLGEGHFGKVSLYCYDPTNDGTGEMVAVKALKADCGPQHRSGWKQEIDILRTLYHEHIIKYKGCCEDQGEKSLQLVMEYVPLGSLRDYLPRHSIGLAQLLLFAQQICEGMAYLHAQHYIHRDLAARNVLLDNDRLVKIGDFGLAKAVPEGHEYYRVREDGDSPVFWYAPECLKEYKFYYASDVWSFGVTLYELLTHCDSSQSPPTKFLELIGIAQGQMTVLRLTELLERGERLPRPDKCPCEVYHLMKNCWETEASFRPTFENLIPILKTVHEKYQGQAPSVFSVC
T1 sequence (P23458 whole entry): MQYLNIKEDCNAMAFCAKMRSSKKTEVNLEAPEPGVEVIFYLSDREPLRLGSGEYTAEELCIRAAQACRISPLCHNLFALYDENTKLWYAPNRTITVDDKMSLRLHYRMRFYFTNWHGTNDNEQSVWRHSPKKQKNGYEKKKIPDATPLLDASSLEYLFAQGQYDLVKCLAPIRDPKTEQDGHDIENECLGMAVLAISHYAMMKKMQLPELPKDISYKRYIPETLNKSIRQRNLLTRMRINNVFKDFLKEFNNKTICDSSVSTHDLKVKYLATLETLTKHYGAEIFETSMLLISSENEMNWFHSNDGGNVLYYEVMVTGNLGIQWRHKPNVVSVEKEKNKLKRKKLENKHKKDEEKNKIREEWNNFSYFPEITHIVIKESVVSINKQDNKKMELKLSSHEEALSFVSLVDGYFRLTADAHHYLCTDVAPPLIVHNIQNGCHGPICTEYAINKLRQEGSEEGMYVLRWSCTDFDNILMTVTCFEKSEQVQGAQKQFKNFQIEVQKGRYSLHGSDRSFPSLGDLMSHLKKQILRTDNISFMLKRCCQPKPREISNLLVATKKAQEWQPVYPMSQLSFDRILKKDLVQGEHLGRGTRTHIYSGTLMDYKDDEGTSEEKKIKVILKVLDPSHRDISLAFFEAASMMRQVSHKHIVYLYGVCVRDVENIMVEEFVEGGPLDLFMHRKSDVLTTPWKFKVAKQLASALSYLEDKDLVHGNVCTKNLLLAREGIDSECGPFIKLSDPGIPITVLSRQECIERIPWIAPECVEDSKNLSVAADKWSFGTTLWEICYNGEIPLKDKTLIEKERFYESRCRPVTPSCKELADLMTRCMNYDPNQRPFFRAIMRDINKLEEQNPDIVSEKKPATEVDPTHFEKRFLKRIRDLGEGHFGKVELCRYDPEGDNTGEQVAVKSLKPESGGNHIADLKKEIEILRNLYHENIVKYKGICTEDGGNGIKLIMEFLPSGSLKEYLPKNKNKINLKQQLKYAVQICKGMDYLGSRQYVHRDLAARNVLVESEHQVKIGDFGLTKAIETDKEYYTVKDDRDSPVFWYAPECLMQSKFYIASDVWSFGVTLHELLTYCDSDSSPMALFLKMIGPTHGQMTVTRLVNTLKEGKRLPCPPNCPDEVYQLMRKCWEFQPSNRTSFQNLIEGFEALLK

Row | JAK1 enzyme inhibitory activity (%, 1 μM) [1] | JAK2 enzyme inhibitory activity (%, 1 μM) [2] | JAK3 enzyme inhibitory activity (%, 1 μM) [3] | TYK2 enzyme inhibitory activity (%, 1 μM) [4] | inhibition at 1 µM [1] | inhibition at 1 µM [2] | inhibition at 1 µM [3] | inhibition at 1 µM [4] | SMILES
1 | 96% | 99% | 99% | 99% |  |  |  |  | COC1(c2cc(-c3cn(C(C#N)C(C)C)c(=O)c4c(N)n[nH]c34)nn2C)CCC(F)(F)CC1 (centres unmarked) [Example 138, 2-(3-amino-7-(5-(4,4-difluoro-1-methoxycyclohexyl)-1-methyl-1H-pyrazol-3-yl)-4-oxo-1,4-dihydro-5H-pyrazolo[4,3-c]pyridin-5-yl)-3-methylbutanenitrile]
2 | 32% | 80% | 66% | 93% |  |  |  |  | COC1(c2cc(-c3cn(C(C#N)C(C)C)c(=O)c4c(N)n[nH]c34)nn2C)CCC(F)(F)CC1 (centres unmarked) [Example 139, 2-(3-amino-7-(5-(4,4-difluoro-1-methoxycyclohexyl)-1-methyl-1H-pyrazol-3-yl)-4-oxo-1,4-dihydro-5H-pyrazolo[4,3-c]pyridin-5-yl)-3-methylbutanenitrile]
3 |  |  |  |  | 98% | 99% | 100% | 99% | CN(C)[C@H]1CCN(c2cc(-c3cn(-c4c(F)cccc4F)c(=O)c4c(N)n[nH]c34)nn2C)C1 [Example 140, 3-amino-5-(2,6-difluorophenyl)-7-(5-((3S)-3-(dimethylamino)pyrrolidin-1-yl)-1-methyl-1H-pyrazol-3-yl)-1,5-dihydro-4H-pyrazolo[4,3-c]pyridin-4-one]
4 |  |  |  |  | 98% | 99% | 100% | 100% | Cn1nc(-c2cn(-c3c(F)cccc3F)c(=O)c3c(N)n[nH]c23)cc1N1CCC(C#N)CC1 [Example 141, 1-(3-(3-amino-5-(2,6-difluorophenyl)-4-oxo-4,5-dihydro-1H-pyrazolo[4,3-c]pyridin-7-yl)-1-methyl-1H-pyrazol-5-yl)piperidine-4-carbonitrile]
5 |  |  |  |  | 98% | 98% | 99% | 98% | Cn1nc(-c2cn(-c3c(F)cccc3F)c(=O)c3c(N)n[nH]c23)cc1N1CCC[C@@H]1CC#N [Example 142, ((2R)-1-(3-(3-amino-5-(2,6-difluorophenyl)-4-oxo-4,5-dihydro-1H-pyrazolo[4,3-c]pyridin-7-yl)-1-methyl-1H-pyrazol-5-yl)pyrrolidin-2-yl)acetonitrile]
6 |  |  |  |  | 99% | 98% | 99% | 100% | Cn1nc(-c2cn(-c3c(F)cccc3F)c(=O)c3c(N)n[nH]c23)cc1N1CCOCC1 [Example 143, 3-amino-5-(2,6-difluorophenyl)-7-(1-methyl-5-(morpholin-4-yl)-1H-pyrazol-3-yl)-1,5-dihydro-4H-pyrazolo[4,3-c]pyridin-4-one]
7 |  |  |  |  | 92% | 98% | 99% | 100% | COC1(c2cc(-c3cn(-c4c(F)cccc4F)c(=O)c4c(N)n[nH]c34)nn2C)CN(S(=O)(=O)C(C)C)C1 [Example 144, 3-amino-5-(2,6-difluorophenyl)-7-(5-(1-(isopropylsulfonyl)-3-methoxyazetidin-3-yl)-1-methyl-1H-pyrazol-3-yl)-1,5-dihydro-4H-pyrazolo[4,3-c]pyridin-4-one]
8 |  |  |  |  | 89% | 98% | 99% | 100% | CN(C)C[C@H]1CCCN1c1cc(-c2cn(C(C3CC3)C3CC3)c(=O)c3c(N)n[nH]c23)nn1C [Example 145, 3-amino-5-(dicyclopropylmethyl)-7-(5-((2R)-2-((dimethylamino)methyl)pyrrolidin-1-yl)-1-methyl-1H-pyrazol-3-yl)-1,5-dihydro-4H-pyrazolo[4,3-c]pyridin-4-one]
